Experimental data reported in US20060110376A1, “MDA-7 and free radicals in the treatment of cancer” (priority 2002, published 2006).

Tests used:
[1] = system: renal carcinoma cells (UOK121N, A498); assay: Clonogenic survival assay; assay type: cell-based, human; details: arsenic trioxide (0.5 μM) alone
Method: Panel A. UOK121N cells. Panel B. A498 cells. Cells were plated in 6 well plates (˜5×10^4 cells/well) and 24 h later treated with GST, GST-MDA-7 (both 0.5 nM) and As2O3 (0.5 μM) as indicated. Cells were isolated 96 h after GST-MDA-7 treatment and cell viability determined using trypan blue exclusion assay (see FIG. 28). Based on trypan blue negative viable cell values, 250, 500 and 2000 viable cells were re-plated in Linbro plates. The plating density for colony formation assays depended upon the prior treatment of the cells and data obtained in FIGS. 27 and 28. 10-14 days after plating, cells were fixed and stained with crystal violet. Colony formation was determined using visual counting, and a colony was defined as a group of >50 cells. Data are the means of 3 separate experiments (±SEM). * p<0.05 less than control cells; # p<0.05 less than As2O3 or GST-MDA-7 treated cells.
Cell Survival Analyses. Cells were assayed for the effect(s) of GST-MDA-7 and arsenic trioxide on cell survival. Cells were plated (10,000 cells per 60 mm dish) and 24 h after plating treated with GST-MDA-7 or GST. Thirty minutes later, cells were treated with arsenic trioxide. Ninety-six hours later, cells were isolated by trypsinization and viable trypan blue negative cells re-plated in 60 mm dishes at 250-1,000 cells per plate. […] Colonies that contain more than 50 cells were then counted. […]

[2] = system: RT2 cells; assay: MTT growth and trypan blue viability with NAC or Ad.Bcl-XL; assay type: cell-based, rat; details: 10 mM NAC 30 min before 6 Gy; Ad.mda-7 25 m.o.i.
Method: FIG. 15A-D. Ad.mda-7 reduces the expression of Bcl-XL and increases the levels of BAX, consistent with a causal role of Bcl-XL expression in the radiosensitizing effect. Cells were cultured for 24 h after plating then infected with Ad.mda-7 or CMV control viruses (25 m.o.i.). The cells were irradiated (6 Gy) 24 hours after infection. Cells were isolated 96 h after irradiation and processed. Panel A. Ad.mda-7 and radiation suppress the expression of Bcl-XL and enhance BAX levels in RT2 cells 96 h after irradiation. Cells were processed for SDS PAGE and immunoblotting. A representative study (n=3). Panel B. RT2 cells were cultured for 24 h then infected with Ad.mda-7 or CMV control viruses at 25 m.o.i. The cells were irradiated (6 Gy) 24 hours after infection. Cells were isolated 96 h after irradiation and the integrity of nuclear DNA under each condition determined. Data are from two representative experiments. Panel C. […] Cells were processed 96 h after irradiation and cell viability determined via trypan blue exclusion assay. […]
MIT Assay for Determination of Cellular Viability. […] The cytotoxicity of the various treatments was assessed four days after irradiation by measurement of cell viability by use of the MTT assay, as described previously (Mosmann, 1983, J. Immunol. Methods 65:55-63). The plates were read on a Dynatech MR600 Microplate Reader at 540 nm. […]

Compound	clonogenicity [1]	effect of NAC on Ad.mda-7 + radiation cell killing and proliferation [2]
arsenic trioxide	significantly reduced clonogenicity	
CC(=O)N[C@@H](CS)C(=O)O [NAC, N-acetyl-cysteine]		abolished the enhancement in cell killing and reduction in proliferation
